Measurements: US10766903B2 (ALMAC DISCOVERY LIMITED, priority 2016, dated 2020)
Like-named read-outs stand apart in the source and are kept apart here.

Target: USP7 (Homo sapiens (Human), UniProt Q93009)
Assay: USP7 fluorescence polarisation (FP) biochemical assay, ubiquitin-Lys-TAMRA substrate
Details: average of at least duplicate experiments
Description: Measurement of USP7 Inhibitory Activity
USP7 activity was monitored in a fluorescence polarisation (FP) homogeneous assay using the isopeptide ubiquitin-Lys-TAMRA substrate (U-558, Boston Biochem). Full-length USP7 was purchased from Boston Biochem (His6-USP7FL, E-519). Unless otherwise stated, all other reagents were purchased from Sigma-Aldrich. Enzymatic reactions were conducted in black flat-bottom polystyrene 384-well plates (Nunc) and 15 μL total volume. USP7 (2.5 nM, 5 μL) was incubated in assay buffer (50 mM HEPES (pH 7.2), 150 mM NaCl, 0.5 mM EDTA, 5 mM DTT, 0.05% BSA (w/v), 0.05% CHAPS) in the presence or absence of inhibitor (5 μl). Inhibitors were stored as 10 mM DMSO stocks in an inert environment (low humidity, dark, low oxygen, room temperature) using a Storage Pod System and serial dilutions were prepared in buffer just prior to the assay (from 200 to 0.1 μM, 8 dp curve). […] FP was measured every 15 min over a period of 1.5 h (within the linear range of the assay) using a Synergy 4 plate reader (BioTek) exciting at 530 nm and measuring the amount of parallel and perpendicular light at 575 nm. The FP signal was subsequently normalised to the control without compound present.

[1] = Table 4, biochemical assay, read-out: USP7 IC50
[2] = USP7 IC50, Table 4, biochemical assay

Sequence of USP7 (Q93009 whole entry): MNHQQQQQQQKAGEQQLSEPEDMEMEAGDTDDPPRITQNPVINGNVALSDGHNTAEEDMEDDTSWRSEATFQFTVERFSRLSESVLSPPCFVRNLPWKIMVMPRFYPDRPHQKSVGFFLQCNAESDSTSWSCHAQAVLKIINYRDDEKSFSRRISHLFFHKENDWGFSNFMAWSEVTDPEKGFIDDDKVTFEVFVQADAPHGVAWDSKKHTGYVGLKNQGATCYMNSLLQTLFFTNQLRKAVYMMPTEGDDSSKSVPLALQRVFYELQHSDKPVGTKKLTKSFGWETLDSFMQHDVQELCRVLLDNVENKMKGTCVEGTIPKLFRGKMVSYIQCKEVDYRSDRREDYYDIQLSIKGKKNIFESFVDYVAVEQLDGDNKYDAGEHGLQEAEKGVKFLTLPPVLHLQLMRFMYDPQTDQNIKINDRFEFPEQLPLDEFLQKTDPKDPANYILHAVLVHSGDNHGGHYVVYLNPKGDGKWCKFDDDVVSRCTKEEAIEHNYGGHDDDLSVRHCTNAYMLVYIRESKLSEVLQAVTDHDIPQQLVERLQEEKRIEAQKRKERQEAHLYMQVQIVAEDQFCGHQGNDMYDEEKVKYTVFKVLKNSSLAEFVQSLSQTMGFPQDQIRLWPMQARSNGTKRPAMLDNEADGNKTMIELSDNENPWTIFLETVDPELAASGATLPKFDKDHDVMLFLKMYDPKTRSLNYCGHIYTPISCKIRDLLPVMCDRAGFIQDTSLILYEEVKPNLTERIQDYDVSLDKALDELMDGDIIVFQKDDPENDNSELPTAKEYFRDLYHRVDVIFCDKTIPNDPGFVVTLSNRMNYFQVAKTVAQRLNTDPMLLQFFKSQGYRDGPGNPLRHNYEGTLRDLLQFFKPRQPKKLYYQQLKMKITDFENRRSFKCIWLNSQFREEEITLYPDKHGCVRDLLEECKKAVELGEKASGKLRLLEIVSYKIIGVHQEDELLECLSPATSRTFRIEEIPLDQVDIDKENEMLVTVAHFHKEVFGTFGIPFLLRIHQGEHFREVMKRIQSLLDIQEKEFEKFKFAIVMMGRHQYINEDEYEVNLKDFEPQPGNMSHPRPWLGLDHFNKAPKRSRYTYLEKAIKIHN

IC50 [1] | SMILES | IC50 [2]
< 250 nM | C[C@H](CC(=O)N1CCC(O)(Cn2cnc3c(ncn3-c3ccc(CN)cc3)c2=O)CC1)c1ccccc1 [Example 68, (R)-9-(4-(Aminomethyl)phenyl)-1-((4-hydroxy-1-(3-phenylbutanoyl)piperidin-4-yl)methyl)-1H-purin-6(9H)-one] | –
1000 to 200000 nM | COC[C@H]1CCCN1CCNc1cc(=O)n(CC2(O)CCN(C(=O)C[C@@H](C)c3ccccc3)CC2)cn1 [Example 70, 3-((4-Hydroxy-1-((R)-3-phenylbutanoyl)piperidin-4-yl)methyl)-6-((2-((R)-2-(methoxymethyl)pyrrolidin-1-yl)ethyl)amino)pyrimidin-4(3H)-one] | –
< 250 nM | Cc1nc2c(=O)n(CC3(O)CCN(C(=O)C[C@@H](C)c4ccccc4)CC3)cnc2n1-c1ccc(CN)cc1 [Example 72, (R)-9-(4-(Aminomethyl)phenyl)-1-((4-hydroxy-1-(3-phenylbutanoyl)piperidin-4-yl)methyl)-8-methyl-1H-purin-6(9H)-one] | –
– | C[C@H](CC(=O)N1CCC(O)(Cn2cnc(NCCN3CC[C@@H](F)C3)cc2=O)CC1)c1ccccc1 [Example 73, 6-((2-((R)-3-Fluoropyrrolidin-1-yl)ethyl)amino)-3-((4-hydroxy-1-((R)-3-phenylbutanoyl)piperidin-4-yl)methyl)pyrimidin-4(3H)-one, Formic Acid] | 250 to 999 nM
– | C[C@H](CC(=O)N1CCC(O)(Cn2cnc(NCCN3CC[C@H](F)C3)cc2=O)CC1)c1ccccc1 [Example 74, 6-((2-((S)-3-Fluoropyrrolidin-1-yl)ethyl)amino)-3-((4-hydroxy-1-((R)-3-phenylbutanoyl)piperidin-4-yl)methyl)pyrimidin-4(3H)-one, Formic Acid] | 250 to 999 nM
< 250 nM | C[C@@H](N)c1ccc(-c2c3ncn(CC4(O)CCN(C(=O)C[C@H](c5ccccc5)C(F)(F)F)CC4)c(=O)c3nn2C)cc1 [Example 75, 3-(4-((R)-1-Aminoethyl)phenyl)-6-((4-hydroxy-1-((R)-4,4,4-trifluoro-3-phenylbutanoyl)piperidin-4-yl)methyl)-2-methyl-2H-pyrazolo[4,3-d]pyrimidin-7(6H)-one] | –
< 250 nM | C[C@H](N)c1ccc(-c2c3ncn(CC4(O)CCN(C(=O)C[C@H](c5ccccc5)C(F)(F)F)CC4)c(=O)c3nn2C)cc1 [Example 76, 3-(4-((S)-1-Aminoethyl)phenyl)-6-((4-hydroxy-1-((R)-4,4,4-trifluoro-3-phenylbutanoyl)piperidin-4-yl)methyl)-2-methyl-2H-pyrazolo[4,3-d]pyrimidin-7(6H)-one] | –
< 250 nM | NCc1ccc(-n2cnc3c(=O)n(CC4(O)CCN(C(=O)C[C@H](c5ccccc5)C(F)(F)F)CC4)cnc32)cc1 [Example 77, (R)-9-(4-(Aminomethyl)phenyl)-1-((4-hydroxy-1-(4,4,4-trifluoro-3-phenylbutanoyl)piperidin-4-yl)methyl)-1H-purin-6(9H)-one] | –
< 250 nM | Cc1nc2c(=O)n(CC3(O)CCN(C(=O)C[C@H](c4ccccc4)C(F)(F)F)CC3)cnc2n1-c1ccc(CN)cc1 [Example 78, (R)-9-(4-(Aminomethyl)phenyl)-1-((4-hydroxy-1-(4,4,4-trifluoro-3-phenylbutanoyl)piperidin-4-yl)methyl)-8-methyl-1H-purin-6(9H)-one] | –

SMILES | IC50 [1] | IC50 [2]
C[C@H](CC(=O)N1CCC(O)(Cn2cnc(NCCN3CCC[C@@H]3C)cc2=O)CC1)c1ccccc1 [Example 69, 3-((4-Hydroxy-1-((R)-3-phenylbutanoyl)piperidin-4-yl)methyl)-6-((2-((S)-2-methylpyrrolidin-1-yl)ethyl)amino)pyrimidin-4(3H)-one, Formic Acid] | < 250 nM | –
C[C@H]1CCN(CCNc2cc(=O)n(CC3(O)CCN(C(=O)C[C@@H](C)c4ccccc4)CC3)cn2)C1 [Example 71, 3-((4-Hydroxy-1-((R)-3-phenylbutanoyl)piperidin-4-yl)methyl)-6-((2-((S)-3-methylpyrrolidin-1-yl)ethyl)amino)pyrimidin-4(3H)-one, Formic Acid] | < 250 nM | –
